Test results from publication PMC2829425 (Protein expression and purification, 2010).

Columns and labels:
[1] = biological target: T1, zebrafish monoamine oxidase (zMAO) (Danio rerio, UniProt Q6NSN2); assay: specific activity of purified enzyme, 4-hydroxyquinoline formation at […] nm; assay type: biochemical
T1 sequence (Q6NSN2 1-522): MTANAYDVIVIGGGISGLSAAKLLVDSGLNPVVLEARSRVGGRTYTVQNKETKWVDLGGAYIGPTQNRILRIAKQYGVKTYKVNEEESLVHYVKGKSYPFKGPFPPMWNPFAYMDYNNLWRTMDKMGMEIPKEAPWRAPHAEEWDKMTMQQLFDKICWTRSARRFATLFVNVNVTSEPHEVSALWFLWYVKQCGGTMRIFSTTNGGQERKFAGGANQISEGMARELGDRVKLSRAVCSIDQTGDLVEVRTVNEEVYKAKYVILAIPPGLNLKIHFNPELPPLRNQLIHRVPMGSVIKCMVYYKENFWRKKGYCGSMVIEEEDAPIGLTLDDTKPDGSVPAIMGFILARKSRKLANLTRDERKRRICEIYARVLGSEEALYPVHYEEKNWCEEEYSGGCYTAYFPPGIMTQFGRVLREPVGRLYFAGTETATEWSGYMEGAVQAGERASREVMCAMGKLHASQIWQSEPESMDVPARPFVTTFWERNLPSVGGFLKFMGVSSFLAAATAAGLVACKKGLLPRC

[2] = biological target: T1, zebrafish monoamine oxidase (zMAO); assay: irreversible inhibition of purified enzyme; assay type: biochemical
[3] = biological target: T1, zebrafish monoamine oxidase (zMAO); assay: steady-state kinetics, benzaldehyde formation at […] nm; assay type: biochemical; details: read-out: Benzylamine
[4] = substrate: NCCc1ccccc1; assay: steady-state kinetics, Amplex red/peroxidase-coupled assay; assay type: biochemical, Danio rerio; details: covalent FAD ([…]α-S-cysteinylFAD); pH 7.4; 25.0 °C

NCCC(=O)c1ccccc1N [Kynuramine]
specific activity of purified enzyme, 4-hydroxyquinoline formation at 316 nm [1]: 1.5 U/mg

C#CCN(C)CCCOc1ccc(Cl)cc1Cl [Clorgyline]
IC50 [2]: 64 µM

NCc1ccccc1 [Benzylamine]
Km [3]: 82.2 ± 9 µM

C#CCN(C)C(C)Cc1ccccc1 (stereo not shown) [Deprenyl]
IC50 [2]: 6.5 µM

B1: zebrafish monoamine oxidase (zMAO) (Danio rerio) (protein)
chain: MTANAYDVIVIGGGISGLSAAKLLVDSGLNPVVLEARSRVGGRTYTVQNKETKWVDLGGAYIGPTQNRILRIAKQYGVKTYKVNEEESLVHYVKGKSYPFKGPFPPMWNPFAYMDYNNLWRTMDKMGMEIPKEAPWRAPHAEEWDKMTMQQLFDKICWTRSARRFATLFVNVNVTSEPHEVSALWFLWYVKQCGGTMRIFSTTNGGQERKFAGGANQISEGMARELGDRVKLSRAVCSIDQTGDLVEVRTVNEEVYKAKYVILAIPPGLNLKIHFNPELPPLRNQLIHRVPMGSVIKCMVYYKENFWRKKGYCGSMVIEEEDAPIGLTLDDTKPDGSVPAIMGFILARKSRKLANLTRDERKRRICEIYARVLGSEEALYPVHYEEKNWCEEEYSGGCYTAYFPPGIMTQFGRVLREPVGRLYFAGTETATEWSGYMEGAVQAGERASREVMCAMGKLHASQIWQSEPESMDVPARPFVTTFWERNLPSVGGFLKFMGVSSFLAAATAAGLVACKKGLLPRC
Km [4]: 86 ± 13 µM
kcat [4]: 3.4 ± 0.145 s⁻¹
kcat/Km [4]: 39500 ± 3170 M⁻¹ s⁻¹
